“Also recorded” adds a separate entry of the source.
Tested on: sickle red blood cells (K-Cl cotransport)
Test: Inhibition of dense cell formation triggered by 500 mM urea (K-Cl cotransport) in sickle red blood cells
Format: cell-based, human
Conditions: 37 centigrade, 3 hours; for inhibition of dense cell formation (FIG. 4): 0.6 mM, oxygenated and deoxygenated conditions; for inhibition of dense cell formation: hematocrit 2%
Experimental: The reaction medium consists of: 150 mM NaCl, 1 mM MgSO4, 10 mM HEPES buffer and 10 mM glucose. The osmolarity of the medium was adjusted to 290 mOsm/kg using a freezing point osmometer and the pH was adjusted to 7.4
For in vitro tests, blood was obtained from adult sickle cell patients (using acid-citrate-dextrose as an anticoagulant) whose hemoglobin F content is less than 1% and whose content of irreversibly sickled cells is less than 10%. The blood could be used for 2 days as long as the air-space of the container was equilibrated with 95% air/5% CO2 and the container was gently tumbled (1 to 2 rpm) at 4° C.
Four ml of the density gradient solution (density=1.104) was poured into each of 15 ml COREX centrifuge tubes (Corning Glass), and the tubes were spun at 10,000 rpm for 5 min, by which a density gradient was automatically formed. Then, 100 μl of blood was overlayered on top of each pre-formed density gradient, and the tubes were span for 10 minutes at 2,500 rpm using a low speed centrifuge with a swing rotor.
When red blood cells of normal subject with normal hemoglobin were spun, they all stayed near a top portion of the gradient (FIG. 2A). […] Then, the red blood cells in the top layer of each tubes, which consists of “non-dense cells”, were collected, washed with the reaction medium, resuspended in the same medium, and used for the experiments.
As described above, tubes each containing 4 ml of the density gradient solution with the density of 1.104 were spun at 12,000 rpm for 5 min to form gradient density. K-Cl cotransport experiments were conducted by incubating a suspension of “non-dense cells” with the hematocrit value of 2% at 37 centigrade for 3 hours. Then, 50 μl of each non-dense cell suspension was overlayered on top of the pre-formed density gradient, and the tubes were span for 10 minutes at 2,500 rpm using a low speed centrifuge with a swing rotor. If 500 mM urea was added before the incubation, dense cells were formed due to the stimulation of K-Cl cotransport as shown in FIG. 2D.
When the bottom layer was formed, red cells in both the top and bottom layers were separately collected, washed and hemolyzed in 5 mM phosphate buffer (pH 7.4) containing 0.5 mM EDTA and 0.5% of a detergent, BRIJ-30. From the hemoglobin content as determined by spectrophotometry, we determined the percentage of dense cell formation (Ohnishi, S. T. British J. Haematology 55:665-671, 1983).
FIG. 3. Dense cells can be formed by incubating non-dense cells at 37 centigrade for 3 hours in the presence of 500 mM urea, which triggers K-Cl cotransport and concomitant dehydration. […] The formation can be inhibited by the addition of inhibitors before starting the incubation. […] However, neither 2 mM vitamin C nor 2 mM vitamin E inhibited the dense cell formation.
FIG. 4. The inhibition of dense cell formation triggered with 500 mM urea at 37 centigrade for 3 hours by different green tea polyphenols. Open columns are for the oxygenated condition and filled columns for the deoxygenated condition. Abbreviations. CH: (+)-Catechin; EC: (−)-Epicatechin; ECg: (−)-Epicatechin gallate; EGC: (−)-Epigallocatechin; and EGCg: (−)-Epigallocatechin gallate.

Compound: Oc1cc(O)c2c(c1)O[C@H](c1ccc(O)c(O)c1)[C@@H](O)C2 [CH, (+)-Catechin]
- inhibition of dense cell formation (FIG. 4): no effects

Compound: O=C(O[C@@H]1Cc2c(O)cc(O)cc2O[C@@H]1c1ccc(O)c(O)c1)c1cc(O)c(O)c(O)c1 [ECg, (−)-Epicatechin gallate]
- inhibition of dense cell formation (FIG. 4): significant effect

Compound: Oc1cc(O)c2c(c1)O[C@H](c1cc(O)c(O)c(O)c1)[C@H](O)C2 [EGC, (−)-Epigallocatechin]
- inhibition of dense cell formation (FIG. 4): significant effect

Compound: O=C1O[C@H]([C@@H](O)CO)C(O)=C1O [Vitamin C, reference compound]
- inhibition of dense cell formation (2 mM): no inhibitory effect

Compound: COC[C@@H]([C@H](O)[C@H](O)C(=O)NCC[C@H](C)c1nc(/C=C/C[C@@H]2O[C@]3(C[C@@H](O)[C@@H]2C)O[C@H]([C@H](C[C@H](O)[C@H](C)[C@H](O)[C@H](C)/C=C(C)/C(C)=C/C=C/C(C)=C\C#N)OC)[C@H](OP(=O)(O)O)C3(C)C)co1)N(C)C [calyculin A, reference compound]
- inhibition of dense cell formation (25 nM): inhibited the dense cell formation completely

Compound: C=C1[C@@H](O)[C@@H]2O[C@]3(CC[C@H](/C=C/[C@@H](C)[C@@H]4CC(C)=C[C@@]5(O[C@H](C[C@@](C)(O)C(=O)O)CC[C@H]5O)O4)O3)CC[C@H]2O[C@@H]1[C@@H](O)C[C@H](C)[C@H]1O[C@@]2(CCCCO2)CC[C@H]1C [okadaic acid, reference compound]
- inhibition of dense cell formation (100 nM): inhibited the dense cell formation completely

Compound: (−)-Epigallocatechin gallate [EGCg]
- inhibition of dense cell formation (FIG. 4): significant effect; also recorded: maximum inhibitory effect
- inhibition of dense cell formation (0.2-0.6 mM): effectively inhibited dense cell formation

Compound: Vitamin E [reference compound]
- inhibition of dense cell formation (2 mM): no inhibitory effect
